Assay results: PubChem BioAssay (NCI)
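Grown in 96-well plates, cells were treated for 48 hours with each compound at five concentrations. Insufficient inhibition: endpoint recorded as highest concentration tested. The concentration for 50% growth inhibition is given as GI50. At the TGI there is no net growth.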

Assays:
Test in all cases: DTP human tumour cell line panel, 48 h
[1] = test system: U251 CNS
[2] = test system: OVCAR-3 ovarian
[3] = test system: NCI-H226 lung
[4] = test system: CAKI-1 renal
[5] = test system: HT29 colon
[6] = test system: M14 melanoma
[7] = test system: SN12C renal
[8] = test system: SW-620 colon
[9] = test system: MDA-MB-435
[10] = test system: RPMI-8226 leukemia

SMILES: Nc1ccccc1C#C/C=C\C#Cc1ccccc1OC(F)(F)F
- GI50 [1]: 5.44 µM
- TGI [1]: 22.2 µM
- GI50 [2]: 3.49 µM
- TGI [2]: 20.5 µM
- GI50 [3]: 14 µM
- TGI [3]: 40.3 µM
- GI50 [4]: 4.42 µM
- TGI [4]: 28.2 µM
- GI50 [5]: 3.62 µM
- TGI [5]: 28.7 µM
- GI50 [6]: 3.86 µM
- TGI [6]: 17.8 µM
- GI50 [7]: 9.85 µM
- TGI [7]: 26.8 µM
- GI50 [8]: 3.96 µM
- TGI [8]: 16 µM
- GI50 [9]: 1.39 µM
- TGI [9]: 6.04 µM
- GI50 [10]: 3.55 µM
- TGI [10]: 18 µM

SMILES: O=[N+]([O-])c1cccc(-c2csc(NNC3=NC/C(=C/c4ccc5c(c4)OCO5)S3)n2)c1
- TGI [1]: > 100 µM
- TGI [2]: > 100 µM
- TGI [3]: 43.3 µM
- TGI [4]: > 100 µM
- TGI [5]: 65.4 µM
- TGI [6]: 96 µM
- TGI [7]: > 100 µM
- TGI [8]: > 100 µM
- TGI [9]: > 100 µM
- TGI [10]: 93.5 µM

SMILES: Cc1ccc2c(C)c3c(ccc4ccccc43)c[n+]2c1
- GI50 [1]: 2.8 µM
- TGI [1]: 18.6 µM
- GI50 [2]: 2.64 µM
- TGI [2]: 16.8 µM
- GI50 [3]: 21.1 µM
- TGI [3]: > 100 µM
- GI50 [4]: 40.5 µM
- TGI [4]: > 100 µM
- GI50 [5]: 33.5 µM
- TGI [5]: > 100 µM
- GI50 [6]: 14.1 µM
- TGI [6]: 31.7 µM
- GI50 [7]: 2.18 µM
- TGI [7]: 18.2 µM
- GI50 [9]: 9.55 µM
- TGI [9]: 24.4 µM
- GI50 [10]: 4.92 µM
- TGI [10]: 41.2 µM

SMILES: Cn1cc(C2=C(c3c4n(c5ccccc35)CCCCC4)C(=O)NC2=O)c2ccccc21
- GI50 [1]: 6.61 µM
- TGI [1]: > 25 µM
- GI50 [2]: 1.21 µM
- TGI [2]: 8.05 µM
- GI50 [3]: 12 µM
- TGI [3]: > 25 µM
- GI50 [4]: 2.53 µM
- TGI [4]: > 20.2 µM
- GI50 [5]: 2.57 µM
- TGI [5]: > 25 µM
- GI50 [6]: 4.69 µM
- TGI [6]: > 25 µM
- GI50 [7]: 9.88 µM
- TGI [7]: > 25 µM
- GI50 [8]: 2.19 µM
- TGI [8]: > 25 µM
- GI50 [9]: 0.7 µM
- TGI [9]: 3.01 µM
- GI50 [10]: 6.88 µM
- TGI [10]: > 19.2 µM

SMILES: NS(=O)(=O)c1ccc2c(c1)OCCOCCOCCOCCO2
- TGI [3]: > 100 µM
- TGI [4]: > 100 µM
- TGI [5]: > 100 µM
- TGI [6]: > 100 µM
- TGI [7]: > 100 µM
- TGI [8]: > 100 µM
- TGI [9]: > 100 µM
- TGI [10]: > 100 µM

SMILES: OC1CSSC1Cn1cnc2c(Nc3ccc(OCc4cccc(F)c4)c(Cl)c3)ncnc21 (centres undefined)
- GI50 [1]: 0.712 µM
- TGI [1]: 1.43 µM
- GI50 [2]: 0.748 µM
- TGI [2]: 1.93 µM
- GI50 [3]: 3.38 µM
- TGI [3]: 12.8 µM
- GI50 [4]: 2.2 µM
- TGI [4]: 6.85 µM
- GI50 [5]: 0.744 µM
- TGI [5]: 3.91 µM
- GI50 [6]: 0.0912 µM
- TGI [6]: 0.288 µM
- GI50 [7]: 4.02 µM
- TGI [7]: 9.5 µM
- GI50 [8]: 1.17 µM
- TGI [8]: 4.54 µM
- GI50 [9]: 0.35 µM
- TGI [9]: 0.788 µM
- GI50 [10]: 1.06 µM
- TGI [10]: 3.74 µM

SMILES: COc1cc2c(cc1OCCCCN1CCN(CC(=O)Nc3ccc(Cl)cc3C(=O)c3ccccc3Cl)CC1)N=CC1CCCN1C2=O (centres undefined)
- GI50 [1]: 0.327 µM
- TGI [1]: 1.06 µM
- GI50 [2]: 0.197 µM
- TGI [2]: 0.435 µM
- GI50 [3]: 0.483 µM
- TGI [3]: 1.44 µM
- GI50 [4]: 0.28 µM
- TGI [4]: 0.676 µM
- GI50 [5]: 0.25 µM
- TGI [5]: 1.04 µM
- GI50 [7]: 0.297 µM
- TGI [7]: 1.14 µM
- GI50 [8]: 0.238 µM
- TGI [8]: 0.726 µM
- GI50 [9]: 0.188 µM
- TGI [9]: 0.367 µM
- GI50 [10]: 0.0573 µM
- TGI [10]: 0.173 µM
